From patent US9079866B2, “Flap modulators” (JANSSEN PHARMACEUTICA NV, priority 2013, dated 2015)
Structures can show the parent of a compound that is named as a salt. Where two headings read alike, the source gives them in different places.

Legend:
[1] = system: leukotriene pathway in human whole blood (LTB4 levels); test: Human whole blood assay (A23187-stimulated LTB4); format: cell-based; details: Homo sapiens, read-out: LTB4 IC50 1:1
In short: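 Heparinised human whole blood diluted 1:1 in RPMI, pre-incubated 15 min at 37° Celsius with compound, then stimulated with A23187 (7 μg/mL) for 30 min at 37° Celsius. Plasma LTB4 measured by immunoassay kit; IC50 from 4-parameter fit; single replicate per plate, at least one healthy donor.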

human FLAP = human FLAP (Homo sapiens (Human), UniProt P20292); test: FLAP binding assay (HTRF format)
human FLAP, sequence (P20292 whole entry): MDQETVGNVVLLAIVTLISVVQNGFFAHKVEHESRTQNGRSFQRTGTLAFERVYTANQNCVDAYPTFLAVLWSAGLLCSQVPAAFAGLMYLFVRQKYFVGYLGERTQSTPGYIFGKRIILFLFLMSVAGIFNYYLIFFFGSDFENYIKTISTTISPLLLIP
In short: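 Samples were run in duplicate on each of two assay plates, the results were averaged, and the signal was expressed as an HTRF ratio.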

[2] = human whole blood diluted 1:1 in RPMI, A23187-stimulated LTB4
[3] = human FLAP wild type, HTRF format, average of two plates, duplicates
[4] = human whole blood diluted 1:1, A23187-stimulated

| IC50 [1, 2] [nM] | Ki (human FLAP; [3]) [nM] | IC50 [1, 4] [nM] | Ki (human FLAP; wild type FLAP, HTRF format) [nM] | SMILES | also measured |
| --- | --- | --- | --- | --- | --- |
| 49 | 10 | – | – | Nc1cnc(-c2ccc(-c3ccccc3S(=O)(=O)N[C@H]3CCCNC3=O)cc2F)cn1 [Example 108, (S)-4′-(5-Aminopyrazin-2-yl)-3′-fluoro-N-(2-oxopiperidin-3-yl)-[1,1′-biphenyl]-2-sulfonamide] | – |
| – | – | 69 | 12 | Nc1ncc(-c2ccc(-c3ccccc3Oc3ccnc(N)n3)cc2F)cn1 [Example 534, 4-{[4′-(2-Aminopyrimidin-5-yl)-3′-fluorobiphenyl-2-yl]oxy}pyrimidin-2-amine] | – |
| – | – | 1650 | 28 | Fc1cc(-c2ccccc2Oc2ncccn2)ccc1-c1cnc2[nH]cnc2c1 [Example 544, 6-[3-Fluoro-2′-(pyrimidin-2-yloxy)biphenyl-4-yl]-3H-imidazo[4,5-b]pyridine] | – |
| – | – | 111 | 16 | O=C(c1ccccc1-c1ccc(-c2cnc3[nH]ccc3c2)c(F)c1)N1CCOCC1 [Example 498, 5-[3-Fluoro-2′-(morpholin-4-ylcarbonyl)biphenyl-4-yl]-1H-pyrrolo[2,3-b]pyridine] | – |
| – | – | 152 | 138 | Nc1cnc(-c2ccc(-c3ccc(C(F)(F)F)cc3CNCCO)cc2F)cn1 [Example 607, 2-({[4′-(5-Aminopyrazin-2-yl)-3′-fluoro-4-(trifluoromethyl)biphenyl-2-yl]methyl}amino)ethanol] | – |
| 206 | 142 | – | – | C[C@@H](CO)NS(=O)(=O)c1ccccc1-c1ccc(-c2cnc(N)nc2)c(F)c1 [Example 286, 4′-(2-Aminopyrimidin-5-yl)-3′-fluoro-N-[(1S)-2-hydroxy-1-methylethyl]biphenyl-2-sulfonamide trifluoroacetic acid salt] | – |
| 20 | 2 | – | – | Nc1cnc(-c2ccc(-c3ccccc3S(=O)(=O)N[C@@H]3CCCC[C@H]3O)cc2F)cn1 [Example 85, 4′-(5-Aminopyrazin-2-yl)-3′-fluoro-N-[(1R,2R)-2-hydroxycyclohexyl]biphenyl-2-sulfonamide] | – |
| 17 | 1 | – | – | COC[C@H](C)NS(=O)(=O)c1ccccc1-c1ccc(-c2cnc(N)cn2)c(F)c1 [Example 175, (S)-4′-(5-Aminopyrazin-2-yl)-3′-fluoro-N-(1-methoxypropan-2-yl)-[1,1′-biphenyl]-2-sulfonamide] | – |
| – | – | 1110 | 34 | N#Cc1cccc(COc2ccccc2-c2ccc(-c3cnc(N)cn3)c(F)c2)n1 [Example 530, 6-({[4′-(5-Aminopyrazin-2-yl)-3′-fluorobiphenyl-2-yl]oxy}methyl)pyridine-2-carbonitrile] | – |
| – | – | 41.8 | 10.5 | COc1ncc(-c2ccccc2-c2ccc(-c3cnc(N)cn3)c(F)c2)cn1 [Example 846, 5-[3-Fluoro-2′-(2-methoxypyrimidin-5-yl)biphenyl-4-yl]pyrazin-2-amine] | – |
| – | – | 340 | 74 | CC(C)(C)NS(=O)(=O)c1ccccc1-c1ccc(-c2cnc(N)c(C#N)c2)c(F)c1 [Example 450, 4′-(6-Amino-5-cyanopyridin-3-yl)-N-tert-butyl-3′-fluorobiphenyl-2-sulfonamide trifluoroacetic acid salt] | – |
| – | – | 9 | 1 | CC(C)(C)NS(=O)(=O)c1ccccc1-c1ccc(-c2cnc3c(c2)CCN3)c(F)c1 [Example 431, N-tert-Butyl-4′-(2,3-dihydro-1H-pyrrolo[2,3-b]pyridin-5-yl)-3′-fluorobiphenyl-2-sulfonamide] | – |
| 74 | 9 | – | – | Cc1cccc(-c2ccc(-c3cnc(N)nc3)c(F)c2)c1S(=O)(=O)NC(C)(C)C [Example 287, 4′-(2-Aminopyrimidin-5-yl)-N-tert-butyl-3′-fluoro-3-methylbiphenyl-2-sulfonamide trifluoroacetic acid salt] | – |
| 61 | 6 | – | – | Nc1cnc(-c2ccc(-c3ccccc3S(=O)(=O)N3CCCC(N)C3)cc2F)cn1 (racemic) [Example 74, racemic 5-{2′-[(3-Aminopiperidin-1-yl)sulfonyl]-3-fluorobiphenyl-4-yl}pyrazin-2-amine] | – |
| 104 | 10 | – | – | Nc1cnc(-c2ccc(-c3ccccc3S(=O)(=O)C3CCC3)cc2F)cn1 [Example 196, 5-[2′-(Cyclobutylsulfonyl)-3-fluorobiphenyl-4-yl]pyrazin-2-amine] | – |
| 18 | 1 | – | – | Nc1cnc(-c2ccc(-c3ccccc3S(=O)(=O)N[C@@H](CO)c3ccccc3)cc2F)cn1 [Example 82, 4′-(5-Aminopyrazin-2-yl)-3′-fluoro-N-[(1R)-2-hydroxy-1-phenylethyl]biphenyl-2-sulfonamide] | – |
| 119 | 15 | – | – | CN1CCN(S(=O)(=O)c2cc(C(F)(F)F)ccc2-c2ccc(-c3cnc(N)nc3)c(F)c2)CC1 [Example 328, 5-{3-Fluoro-2′-[(4-methylpiperazin-1-yl)sulfonyl]-4′-(trifluoromethyl)biphenyl-4-yl}pyrimidin-2-amine] | – |
| – | – | 1140 | 128 | CC(C)Oc1ncccc1-c1ccc(-c2cnc(N)nc2)c(F)c1 [Example 408, 5-{2-Fluoro-4-[2-(1-methylethoxy)pyridin-3-yl]phenyl}pyrimidin-2-amine] | – |
| 168 | 111 | – | – | CNC1CCN(S(=O)(=O)c2ccccc2-c2ccc(-c3cnc(N)cn3)c(F)c2)CC1 [Example 72, 5-(3-Fluoro-2′-{[4-(methylamino)piperidin-1-yl]sulfonyl}biphenyl-4-yl)pyrazin-2-amine] | – |
| 177 | 33 | – | – | Nc1cnc(-c2ccc(-c3ccccc3NS(=O)(=O)C3CC3)cc2F)cn1 [Example 38, N-(4′-(5-aminopyrazin-2-yl)-3′-fluoro-[1,1′-biphenyl]-2-yl)cyclopropanesulfonamide] | – |
| 28 | 5 | – | – | Nc1cnc(-c2ccc(-c3ccccc3S(=O)(=O)N3CCC[C@@H]3CO)cc2F)cn1 [Example 91, (R)-(1-((4′-(5-Aminopyrazin-2-yl)-3′-fluoro-[1,1′-biphenyl]-2-yl)sulfonyl)pyrrolidin-2-yl)methanol] | – |
| 20 | 1 | – | – | CC1(NS(=O)(=O)c2ccccc2-c2ccc(-c3ccc(N)nc3)c(F)c2)CCC1 [Example 353, 4′-(6-Aminopyridin-3-yl)-3′-fluoro-N-(1-methylcyclobutyl)-[, 1′-biphenyl]-2-sulfonamide] | – |
| – | – | > 10000 | 10 | CC(C)(C)NS(=O)(=O)c1ccccc1-c1ccc(-c2ccc3scnc3c2)c(F)c1 [Example 424, 4′-(1,3-Benzothiazol-5-yl)-N-tert-butyl-3′-fluorobiphenyl-2-sulfonamide] | – |
| 21 | 19 | – | – | Nc1cnc(-c2ccc(-c3ccccc3S(=O)(=O)N3C[C@H](O)[C@@H](N4CCCC4)C3)cc2F)cn1 (racemic) [Example 186, Racemic-1′-{[4′-(5-Aminopyrazin-2-yl)-3′-fluorobiphenyl-2-yl]sulfonyl}-1,3′-bipyrrolidin-4′-ol] | – |
| – | – | 3460 | 78 | Nc1cnc(-c2ccc(-c3ccccc3OCC(F)(F)F)cc2F)cn1 [Example 484, 5-[3-Fluoro-2′-(2,2,2-trifluoroethoxy)biphenyl-4-yl]pyrazin-2-amine] | – |
| 416 | 4 | – | – | C[C@H](NS(=O)(=O)c1ccccc1-c1ccc(-c2cnc(N)nc2)c(F)c1)C(=O)OC(C)(C)C [Example 307, tert-Butyl N-{[4′-(2-aminopyrimidin-5-yl)-3′-fluorobiphenyl-2-yl]sulfonyl}-L-alaninate] | – |
| 155 | 4 | – | – | Nc1cnc(-c2ccc(-c3ccccc3S(=O)(=O)N3CC(F)(F)C3)cc2F)cn1 [Example 52, 5-{2′-[(3,3-Difluoroazetidin-1-yl)sulfonyl]-3-fluorobiphenyl-4-yl}pyrazin-2-amine] | – |
| 23 | 20 | – | – | CN1CCN(S(=O)(=O)c2ccccc2-c2ccc(-c3cnc(N)cn3)c(F)c2)CC1 [Example 54, 5-{3-Fluoro-2′-[(4-methylpiperazin-1-yl)sulfonyl]biphenyl-4-yl}pyrazin-2-amine] | – |
| – | – | 370 | 210 | Nc1ncc(-c2ccc(-c3ccccc3N3CCCS3(=O)=O)cc2F)cn1 [Example 858, 5-[2′-(1,1-Dioxidoisothiazolidin-2-yl)-3-fluorobiphenyl-4-yl]pyrimidin-2-amine] | – |
| – | – | > 1000 | 35.6 | N#Cc1ncc(-c2ccccc2-c2ccc(-c3cnc(N)cn3)c(F)c2)cn1 [Example 849, 5-[4′-(5-Aminopyrazin-2-yl)-3′-fluorobiphenyl-2-yl]pyrimidine-2-carbonitrile] | – |

| SMILES | IC50 [1, 2] [nM] | Ki (human FLAP; [3]) [nM] | IC50 [1, 4] [nM] | Ki (human FLAP; wild type FLAP, HTRF format) [nM] | also measured |
| --- | --- | --- | --- | --- | --- |
| Nc1ccc(-c2ccc(-c3ccccc3S(=O)(=O)N3C[C@@H]4C[C@H]3CO4)cc2F)cn1 [Example 663, 5-(2′-((1S,4S)-2-Oxa-5-azabicyclo[2.2.1]heptan-5-ylsulfonyl)-3-fluoro-[1,1′-biphenyl]-4-yl)pyridin-2-amine] | – | – | 34.7 | 5.8 | – |
| C[Si](C)(C)CCOCSc1ccccc1-c1ccc(-c2cnc(N)cn2)c(F)c1 [Example 244, 5-[3-Fluoro-2′-({[2-(trimethylsilyl)ethoxy]methyl}sulfanyl)biphenyl-4-yl]pyrazin-2-amine] | – | 29 | – | – | IC50 [1]: 211 nM |
| Nc1ncc(-c2ccc(-c3ccccc3S(=O)(=O)N3CCN(CCO)CC3)cc2F)cn1 [Example 282, 2-(4-{[4′-(2-Aminopyrimidin-5-yl)-3′-fluorobiphenyl-2-yl]sulfonyl}piperazin-1-yl)ethanol trifluoroacetic acid salt] | 280 | – | – | – | Ki (human FLAP; read-out: FLAP Binding wild type HTRF Ki): 750 nM |
